Test results: PubChem BioAssay AID434954 (Broad Institute, 2010)
The source made the active and inactive calls.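 The calls were made as follows: active = IC50 at or below a set limit above the highest tested dose; inconclusive = flat curve with 30 to 70% inhibition, or poor fit; inactive = the rest.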

The compounds below were run against Glycogen synthase kinase-3 beta (Homo sapiens) (UniProt P49841) (assay: concentration-response blocking of human GSK3B – biochemical, luminescence, cell-free homogeneous, retest, dose response (AID 434954)). Settings: recombinant GSK3beta, ADP-Glo luminescence, 60 min.
Chain of Glycogen synthase kinase-3 beta (Homo sapiens) (P49841 whole entry, looked up): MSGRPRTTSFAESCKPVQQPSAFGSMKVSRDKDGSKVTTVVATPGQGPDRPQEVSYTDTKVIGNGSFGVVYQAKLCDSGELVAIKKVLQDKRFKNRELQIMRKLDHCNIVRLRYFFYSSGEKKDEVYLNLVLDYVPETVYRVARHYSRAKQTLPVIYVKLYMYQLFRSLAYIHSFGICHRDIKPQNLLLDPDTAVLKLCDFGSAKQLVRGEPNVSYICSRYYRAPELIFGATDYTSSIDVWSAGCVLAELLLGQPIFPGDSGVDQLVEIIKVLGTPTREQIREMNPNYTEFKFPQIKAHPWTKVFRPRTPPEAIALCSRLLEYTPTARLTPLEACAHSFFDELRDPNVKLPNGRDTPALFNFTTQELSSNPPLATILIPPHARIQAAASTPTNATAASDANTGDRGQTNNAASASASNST

Structure (SMILES) | IC50
COc1ccc(C2C(C#N)=C(C)NC3=C2C(=O)CC(C)(C)C3)cc1 (centres undefined) | > 30 µM (inactive)
CCCCOC(=O)C1=C(C)Nc2ncnn2C1c1cccc(OC)c1OC (centres undefined) | 4.25 µM
COc1ccc(C2C3=C(CCCC3=O)Nc3n[nH]c(C)c32)cc1OC (centres undefined) | > 30 µM (inactive)
Cc1cc(-c2[nH]nc3c2C(c2cccc(O)c2)C(C#N)=C(N)O3)c(C)s1 (centres undefined) | 25.4 µM
NS(=O)(=O)c1ccc(N=Nc2c(O)[nH]c3ccc(Br)cc23)cc1 | > 30 µM (inactive)
COc1ccc(-c2nn(-c3ccccc3)cc2/C=N/N2C(=O)CSC2=S)cc1 | > 30 µM (inactive)
O=C(O)CCn1cc(/C=N/O)c(-c2cccc([N+](=O)[O-])c2)n1 | 7.38 µM
Cc1ccsc1/C=N/Nc1ncnc2nc[nH]c12 | 9 µM
COc1cccc(C2C3=C(CC(C)(C)CC3=O)Nc3n[nH]c(C)c32)c1 (centres undefined) | 0.958 µM
COc1ccc(C2C(C(C)=O)=C(O)C(=O)N2c2nccs2)c(OC)c1 (centres undefined) | > 30 µM (inactive)
Cc1[nH]nc2c1C(c1ccc(F)cc1)C1=C(CC(C)(C)CC1=O)N2 (centres undefined) | 3.93 µM
O=C(O)c1ccc(N=Nc2c(O)[nH]c3cc(Cl)ccc23)cc1 | 19.1 µM
C(=N\Nc1ncnc2nc[nH]c12)/c1cccs1 | 19.7 µM
Cc1c(C(=O)O)cccc1-n1c(C)cc(/C=N/Nc2ccc([N+](=O)[O-])cn2)c1C | 21.3 µM
CC[n+]1c(/C=C/Nc2ccccc2)sc2ccccc21 | > 30 µM (inactive)
COc1cccc(C2C(C#N)=C(C)NC3=C2C(=O)CC(C)(C)C3)c1 (centres undefined) | > 30 µM (inactive)
O=[N+]([O-])c1ccc2[nH]c(O)c(N=NC3CS(=O)(=O)CC3O)c2c1 (centres undefined) | 23 µM
COCCOC(=O)C1=C(C)Nc2ncnn2C1c1ccccc1 (centres undefined) | > 30 µM (inactive)
Cc1ccc(C2C3=C(CC(C)(C)CC3=O)Nc3[nH]c(=S)[nH]c(=O)c32)cc1 (centres undefined) | > 30 µM (inactive)
COc1cc(C2C3=C(CC(C)(C)CC3=O)Nc3c2c(=O)[nH]c(=O)n3Cc2ccccc2)ccc1O (centres undefined) | > 30 µM (inactive)
N=C(N)N=Nc1c(O)[nH]c2ccc(Br)cc12 | 31.4 µM
COc1cc(/C=N/Nc2nc(Nc3ccccc3)nc(N3CCCCC3)n2)ccc1OCC(=O)O | > 30 µM (inactive)
COc1cc(/C=N/Nc2ccc([N+](=O)[O-])cn2)cc(OC)c1O | 5.41 µM
O=C1C(=O)N(c2ccccn2)C(c2ccc(Br)cc2)/C1=C(/O)c1ccc(Br)cc1 (centres undefined) | > 30 µM (inactive)
COc1cccc(C2C3=C(CC(C)(C)CC3=O)Nc3cc4c(cc32)OCO4)c1 (centres undefined) | > 30 µM (inactive)
Cc1ccc(C2C3=C(CC(C)(C)CC3=O)Nc3n[nH]c(C)c32)cc1 (centres undefined) | 9.26 µM

Structure (SMILES) | IC50
O=C(O)c1cc(-c2ccc(/C=N/Nc3ccc(Cl)cc3)o2)ccc1Cl | > 30 µM (inactive)
Nc1ncnc2c1ncn2[C@@H]1O[C@H](COP(=O)(O)O)[C@@H](O)[C@H]1O | > 30 µM (inactive)
O=C(O)c1ccc(/C=N/Nc2ccc(C(F)(F)F)cn2)cc1 | 20.4 µM
CC1(C)CC(=O)C2=C(C1)Nc1ccccc1NC2c1cccs1 (centres undefined) | > 30 µM (inactive)
CC1=C(C(N)=O)C(c2sccc2C)n2nnnc2N1 (centres undefined) | > 30 µM (inactive)
O=C(CC1SC(N2CCCCC2)=NC1=O)Nc1cccc(C(F)(F)F)c1 (centres undefined) | > 30 µM (inactive)
Cc1cccc(N=Nc2c(C)c(C#N)c(O)[nH]c2=O)c1 | 0.775 µM
CC1(C)CC(=O)C2=C(C1)NC1=C(C(=O)c3ccccc31)C2c1ccc(O)cc1 (centres undefined) | > 30 µM (inactive)
O=C1CC(SC(=Nc2ccccc2)Nc2ccccc2)C(=O)N1c1cccc2ccccc12 (centres undefined) | > 30 µM (inactive)
Cc1ccccc1CSc1nc2n(n1)C(c1cccs1)C1=C(CCCC1=O)N2 (centres undefined) | > 30 µM (inactive)
CCCC1=C(C(=O)OCC)C(c2ccco2)n2ncnc2N1 (centres undefined) | 17.4 µM
Cc1ccccc1/C=N/Nc1ncnc2nc[nH]c12 | 17.1 µM
Cc1[nH]nc2c1C(c1ccc(O)cc1)C1=C(CC(C)(C)CC1=O)N2 (centres undefined) | 2.06 µM
Cc1[nH]nc2c1C(c1cccc(O)c1)C1=C(CC(C)(C)CC1=O)N2 (centres undefined) | 0.421 µM
CC1=C(C(=O)N2CCCCC2)C(c2cccs2)C2=C(CCCC2=O)N1 (centres undefined) | > 30 µM (inactive)
COc1ccc(-c2nn(-c3ccccc3)cc2/C=N/Nc2ccc(Cl)c(C(=O)O)c2)cc1OC | > 30 µM (inactive)
C=CCOC(=O)C1=C(C)Nc2ncnn2C1c1cccs1 (centres undefined) | > 30 µM (inactive)
CC(C)Sc1nc2c(c(=O)[nH]1)C(c1cccs1)C1=C(CC(C)(C)CC1=O)N2 (centres undefined) | > 30 µM (inactive)
CCOc1cc(C2Nc3ccccc3NC3=C2C(=O)CC(C)(C)C3)ccc1O (centres undefined) | > 30 µM (inactive)
CCOC(=O)C1=C(C)Nc2ncnn2C1c1c[nH]c2ccccc12 (centres undefined) | 4.64 µM
COc1ccc(OC)c(C2Nc3ccccc3NC3=C2C(=O)CC(C)(C)C3)c1 (centres undefined) | > 30 µM (inactive)
O=C1CC(c2c[nH]c3ccccc23)C(=O)N1c1ccccc1 (centres undefined) | > 30 µM (inactive)
Cc1ccc(C2C3=C(CC(C)(C)CC3=O)Nc3onc(C)c32)cc1 (centres undefined) | > 30 µM (inactive)
Cc1c(C#N)c(O)[nH]c(=O)c1N=Nc1ccc(S(N)(=O)=O)cc1 | 0.917 µM
O=C(NCCCN1CCCC1=O)c1c(O)nc2sccn2c1=O | > 30 µM (inactive)
N#Cc1c(N)nc2c3c(sc(=N)c2c1N)NC(=O)CC3c1ccccc1 (centres undefined) | > 30 µM (inactive)

Structure (SMILES) | IC50
O/N=C/c1cn(-c2ccccc2)nc1-c1cccnc1 | 6.45 µM
O=C(N/N=C/c1ccc(O)c(O)c1)N/N=C/c1ccc(O)c(O)c1 | 13.3 µM
CCOc1ccc(/C=N/Nc2ccccn2)cc1OC | > 30 µM (inactive)
Cc1nn(-c2ccccn2)c2c1C(c1ccsc1)C1=C(CCCC1=O)N2 (centres undefined) | > 30 µM (inactive)
CSc1nsc(/C=C/Nc2ccc(Cl)cc2)c1C#N | > 30 µM (inactive)
Cc1nn(-c2ccccn2)c2c1C(c1ccncc1)C1=C(CC(C)(C)CC1=O)N2 (centres undefined) | > 30 µM (inactive)
CC1=C(C(=O)OC(C)C)C(c2c[nH]c3ccccc23)n2ncnc2N1 (centres undefined) | 1.81 µM
O=C1CCCC2=C1C(c1cccs1)n1nc(SCc3ccccc3)nc1N2 (centres undefined) | > 30 µM (inactive)
Nc1ncnc2c1ncn2C1OC(CO)C(O)C1O (centres undefined) | > 30 µM (inactive)
CN(C)C=NC(=O)/C(C#N)=C1\CCc2ccccc2N1 | 20.1 µM
Oc1ccc(/C=N/Nc2ncnc3nc[nH]c23)cc1 | > 30 µM (inactive)
CSc1nc2n(n1)C(c1cccs1)C1=C(CCCC1=O)N2 (centres undefined) | > 30 µM (inactive)
CCOC(=O)C1=C(CN2CCSCC2)NC(=O)NC1c1cc(C)ccc1C (centres undefined) | > 30 µM (inactive)
O=C(O)c1cc(N/N=C/c2ccc(-c3ccc(F)cc3)o2)ccc1Cl | > 30 µM (inactive)
O=C1CCCC2=C1C(c1cccs1)n1ncnc1N2 (centres undefined) | > 30 µM (inactive)
Fc1ccccc1/C=N/Nc1ncnc2nc[nH]c12 | 11.2 µM
Cc1noc2c1C(c1ccc(N(C)C)cc1)C1=C(CC(C)(C)CC1=O)N2 (centres undefined) | > 30 µM (inactive)
COc1ccc(C2CC(=O)C3=C(C2)Nc2ncnn2C3c2ccccc2C)cc1 (centres undefined) | > 30 µM (inactive)
CCOC(=O)C1=C(C)Nc2ncnn2C1c1cc(OC)ccc1OC (centres undefined) | > 30 µM (inactive)
C/C(=N\Nc1nccnc1Cl)c1ccc(Br)cc1 | > 30 µM (inactive)
Oc1ccc(/C=N/Nc2ncc(Br)cn2)c(O)c1 | 12.3 µM
O=C(O)c1cccc(-c2ccc(/C=N/Nc3ccc([N+](=O)[O-])cc3)o2)c1 | > 30 µM (inactive)
CCCC1=C(C(=O)OCC)C(c2cccs2)n2ncnc2N1 (centres undefined) | 23.2 µM
COc1cccc(/C=N/Nc2cc(Cl)nc(C)n2)c1O | > 30 µM (inactive)
N#CC(=C=[N-])c1nc2ccccc2nc1-[n+]1cccc(NC(=O)c2ccccc2)c1 | > 30 µM (inactive)
CCCCCOC(=O)C1=C(C)Nc2ncnn2C1c1cccs1 (centres undefined) | > 30 µM (inactive)

Structure (SMILES) | IC50
Nc1ncnc2c1ncn2[C@@H]1O[C@H](CO)[C@@H](O)[C@H]1O | > 30 µM (inactive)
O/N=C/c1cn(-c2ccccc2)nc1-c1ccccc1 | 26 µM
CCCC1=C(C(=O)OCC)C(c2sccc2C)n2ncnc2N1 (centres undefined) | > 30 µM (inactive)
Fc1cccc(/C=N/Nc2ncnc3nc[nH]c23)c1 | 11.9 µM
Cc1[nH]nc2c1C(c1cccs1)C1=C(CCCC1=O)N2 (centres undefined) | 10.6 µM
CC1(C)CC(=O)C2=C(C1)Nc1[nH]c(=S)[nH]c(=O)c1C2c1ccccc1 (centres undefined) | > 30 µM (inactive)
COc1ccc(/C=N/Nc2ccc([N+](=O)[O-])cc2)cc1O | > 30 µM (inactive)
Oc1[nH]c2ccccc2c1C=Nc1ccc2c(c1)OCO2 | 11.4 µM
Cc1ccc2c(c1)NC(c1cccs1)C1=C(CC(C)(C)CC1=O)N2 (centres undefined) | > 30 µM (inactive)
O=C(O)c1ccc(N/N=C/c2ccc(-c3cccc(Cl)c3)o2)cc1 | > 30 µM (inactive)
COc1cc(CN=Cc2c(O)n(C(C)(C)C)c(=O)[nH]c2=O)cc(OC)c1 | > 30 µM (inactive)
Nc1ncnc2c1ncn2[C@@H]1O[C@H](CO)[C@@H](O)[C@@H]1O | > 30 µM (inactive)
O=C(O)c1ccccc1N/N=C\c1ccnc2ccccc12 | > 30 µM (inactive)
Nc1ncnc2c1ncn2C1OC(COP(=O)(O)O)C(O)C1O (centres undefined) | > 30 µM (inactive)
CC(C)n1c(O)c(C=NCc2cccnc2)c(=O)[nH]c1=S | > 30 µM (inactive)
CCc1ccccc1N1C(=O)CC(N2CCc3ccccc32)C1=O (centres undefined) | > 30 µM (inactive)
CN=C(C)/C(C(=O)OC)=C(/O)c1ccc(Cl)cc1Cl | > 30 µM (inactive)
COc1cc(/C=N/Nc2ccc(C(F)(F)F)cn2)ccc1O | 10.1 µM
COc1cc(C2C(C#N)=C(C)NC3=C2C(=O)CC(C)(C)C3)ccc1O (centres undefined) | > 30 µM (inactive)
N#CCCn1cc(/C=N/O)c(-c2ccc(-c3ccccc3)cc2)n1 | > 30 µM (inactive)
Cc1c(C=Nc2ccc(S(=O)(=O)CCO)cc2)c(O)[nH]c(=O)c1C#N | > 30 µM (inactive)
CCOc1cc(C2C3=C(CC(C)(C)CC3=O)Nc3n[nH]c(C)c32)ccc1O (centres undefined) | 3.32 µM
COc1ccc(-c2c(C)n([O-])c(C)c(C)[n+]2=O)cc1 | > 30 µM (inactive)
COc1cccc(C2Nc3ccccc3NC3=C2C(=O)CC(C)(C)C3)c1 (centres undefined) | > 30 µM (inactive)
CCOC(=O)C1=C(C(F)(F)F)Nc2ncnn2C1c1cc(OC)ccc1OC (centres undefined) | > 30 µM (inactive)
COc1ccc(OC)c(N=c2oc3cc(O)ccc3cc2C(N)=O)c1 | 11.9 µM
